From patent publication US20100105661A1, “CONDENSED PYRIDINE COMPOUND” (Astellas Pharma Inc., priority 2007, published 2010)

What follows are compounds tested against T1, human JAK3 kinase domain (Homo sapiens, UniProt P52333) (assay: JAK3 inhibition test). Settings: 20 μM ATP in substrate solution, Biotin-Lyn-Substrate-2, one hour at ambient temperature; compounds of the Examples.
T1 construct: attached to the N-terminal of the 796-1124 (C-terminal) fragment of the human JAK3 protein; His-tag (N); purchased Carna Biosciences, Inc. (Kobe, Japan); host or cells: baculovirus expression system
T1 sequence (P52333 796-1124): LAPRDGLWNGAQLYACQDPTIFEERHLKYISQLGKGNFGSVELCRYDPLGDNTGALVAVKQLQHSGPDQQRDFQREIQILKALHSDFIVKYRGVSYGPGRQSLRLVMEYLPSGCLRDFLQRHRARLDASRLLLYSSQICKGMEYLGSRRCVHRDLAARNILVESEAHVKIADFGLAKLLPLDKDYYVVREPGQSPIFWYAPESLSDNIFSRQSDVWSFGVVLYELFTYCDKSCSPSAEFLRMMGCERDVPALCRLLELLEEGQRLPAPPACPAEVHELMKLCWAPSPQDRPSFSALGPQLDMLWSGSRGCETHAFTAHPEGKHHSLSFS
Assay type: biochemical
Description: The JAK3 inhibition test was performed as described below
Purified human JAK3 kinase domain was purchased from Carna Biosciences, Inc. (Kobe, Japan). This was afforded as described below.
As an assay buffer, 15 mM Tris-HCl pH 7.5 containing 0.01% Tween 20 and 2 mM DTT (dithiothreitol) was used.
After incubation at ambient temperature for one hour, the plate was washed with a cleaning buffer (50 mM Tris-HCl pH 7.5, 150 mM NaCl, 0.02% Tween 20), and a blocking buffer (a cleaning buffer containing 0.1% bovine serum albumin) was added to the plate. After incubation at ambient temperature for 30 minutes, the blocking buffer was removed, and an HRP-PY-20 solution (afforded by diluting HRP-PY-20 solution with the blocking buffer 500 times) was added. After incubation at ambient temperature for 30 minutes, the plate was washed four times, and a TMB substrate solution (Sigma) was added to the plate. After incubation at ambient temperature for 4 minutes, 1M sulfuric acid was added to stop the reaction. Enzyme activity was measured as absorbance at 450 nm.

Row | SMILES | IC50
1 | C[C@@H]1CCN(C(=O)N2C[C@@H](F)C[C@H]2C#N)C[C@@H]1n1c(=O)[nH]c2cnc3[nH]ccc3c21 (mixture of isomers) [Example 2, (2R,4R)-4-fluoro-1-{[(3S,4S)-4-methyl-3-(2-oxo-3,6-dihydroimidazo[4,5-d]pyrrolo[2,3-b]pyridine-1(2H)-yl)-piperidine-1-yl]carbonyl}pyrrolidine-2-carbonitrile and (2R,4R)-4-fluoro-1-{[(3R,4R)-4-methyl-3-(2-oxo-3,6-dihydroimidazo[4,5-d]pyrrolo[2,3-b]pyridine-1(2H)-yl)-piperidine-1-yl]carbonyl}pyrrolidine-2-carbonitrile] | 0.86 nM
2 | N#Cc1ccc(N2CC[C@@H](Nc3c(C(N)=O)cnc4[nH]ccc34)[C@@H](F)C2)nn1 (racemic) [Example 6, 4-{[(3S,4R)-1-(6-cyanopyridazine-3-yl)-3-fluoropiperidine-4-yl]amino}-1H-pyrrolo[2,3-b]pyridine-5-carboxamide and 4-{[(3R,4S)-1-(6-cyanopyridazine-3-yl)-3-fluoropiperidine-4-yl]amino}-1-1H-pyrrolo[2,3-b]pyridine-5-carboxamide] | 0.76 nM
3 | C[C@@H]1CCN(C(=O)CC#N)C[C@@H]1n1nc(N)c2cnc3[nH]ccc3c21 (racemic) [Example 21] | 0.52 nM
4 | C[C@@H]1CCN(C(=O)CC#N)C[C@@H]1n1[nH]c(=O)c2cnc3[nH]ccc3c21 (racemic) [Example 22] | 1.7 nM
5 | N#Cc1ccc(N2CC[C@@H](Nc3c(C(N)=O)cnc4[nH]ccc34)[C@@H](F)C2)nc1 (racemic) [Example 41] | 1.1 nM
6 | C[C@H]1CN(c2ccc(C#N)cn2)CC[C@H]1Nc1c(C(N)=O)cnc2[nH]cnc12 (racemic) [Example 49] | 2.2 nM
7 | C[C@@H]1CN(c2ccc(C#N)cn2)CC[C@@H]1Nc1c(C(N)=O)cnc2[nH]ccc12 (racemic) [Example 65] | 0.78 nM
8 | C[C@@H]1CN(c2ccc(C#N)nn2)CC[C@@H]1Nc1c(C(N)=O)cnc2[nH]ccc12 (racemic) [Example 66] | 1 nM
9 | Nc1nn(C2CCCCCC2)c2c1cnc1[nH]ccc12 [Example 12, 1-cycloheptyl-1,6-dihydropyrazolo-[3,4-d]pyrrolo[2,3-b]pyridine-3-amine] | 10 nM
10 | N#Cc1ccc(N2CCC(Nc3c(C(N)=O)cnc4[nH]ccc34)CC2)cc1 [Example 58] | 3.4 nM

Results, then the compound that gave them:

Row | IC50 | SMILES
11 | 1.6 nM | C[C@@H]1CCN(c2ccc(C#N)cn2)C[C@@H]1n1[nH]c(=O)c2cnc3[nH]ccc3c21 (racemic) [Example 72]
12 | 4.8 nM | CNC(=O)C(=O)Nc1nn([C@H]2CN(c3ccc([N+](=O)[O-])cn3)CC[C@H]2C)c2c1cnc1[nH]ccc12 (racemic) [Example 77]
13 | 2.7 nM | N#Cc1ccc(N2CC[C@@H](Nc3c(C(N)=O)cnc4[nH]ccc34)[C@H](F)C2)nc1 (racemic) [Example 82]
14 | 3.2 nM | NC(=O)c1cnc2[nH]ccc2c1N[C@@H]1CCN(c2ccc(C(F)(F)F)nn2)C[C@@H]1F (racemic) [Example 91]
15 | 10 nM | C[C@@H]1CCN(C(=O)N2CCC=N2)C[C@@H]1n1c(=O)[nH]c2cnc3[nH]ccc3c21 (racemic) [Example 110]
16 | 0.3 nM | N#Cc1ccc(N2CC[C@@H](Nc3c(C(N)=O)cnc4[nH]ccc34)[C@@H](F)C2)nc1 [Example 94]
17 | 3.8 nM | CC[C@@H]1CCCC[C@@H]1n1nc(N)c2cnc3[nH]ccc3c21 [Example 129]

Same assay, conditions: reference compounds produced according to the cited publications, compared in the JAK3 test

Row | IC50 | SMILES
18 | 230 nM | C[C@@H]1CCN(S(=O)(=O)c2cccnc2)C[C@@H]1N(C)c1ccnc2[nH]ccc12 [Reference compound A, reference compound]
19 | 31 nM | CS(=O)(=O)N1CCCC(Nc2c(Cl)cnc3[nH]ccc23)C1 (centres unmarked) [Reference compound B, reference compound]

Each compound was assayed against HERG (Homo sapiens, UniProt Q12809) (assay: HERG assay). Settings: low adverse effect.
Chain of HERG (Q12809 whole entry): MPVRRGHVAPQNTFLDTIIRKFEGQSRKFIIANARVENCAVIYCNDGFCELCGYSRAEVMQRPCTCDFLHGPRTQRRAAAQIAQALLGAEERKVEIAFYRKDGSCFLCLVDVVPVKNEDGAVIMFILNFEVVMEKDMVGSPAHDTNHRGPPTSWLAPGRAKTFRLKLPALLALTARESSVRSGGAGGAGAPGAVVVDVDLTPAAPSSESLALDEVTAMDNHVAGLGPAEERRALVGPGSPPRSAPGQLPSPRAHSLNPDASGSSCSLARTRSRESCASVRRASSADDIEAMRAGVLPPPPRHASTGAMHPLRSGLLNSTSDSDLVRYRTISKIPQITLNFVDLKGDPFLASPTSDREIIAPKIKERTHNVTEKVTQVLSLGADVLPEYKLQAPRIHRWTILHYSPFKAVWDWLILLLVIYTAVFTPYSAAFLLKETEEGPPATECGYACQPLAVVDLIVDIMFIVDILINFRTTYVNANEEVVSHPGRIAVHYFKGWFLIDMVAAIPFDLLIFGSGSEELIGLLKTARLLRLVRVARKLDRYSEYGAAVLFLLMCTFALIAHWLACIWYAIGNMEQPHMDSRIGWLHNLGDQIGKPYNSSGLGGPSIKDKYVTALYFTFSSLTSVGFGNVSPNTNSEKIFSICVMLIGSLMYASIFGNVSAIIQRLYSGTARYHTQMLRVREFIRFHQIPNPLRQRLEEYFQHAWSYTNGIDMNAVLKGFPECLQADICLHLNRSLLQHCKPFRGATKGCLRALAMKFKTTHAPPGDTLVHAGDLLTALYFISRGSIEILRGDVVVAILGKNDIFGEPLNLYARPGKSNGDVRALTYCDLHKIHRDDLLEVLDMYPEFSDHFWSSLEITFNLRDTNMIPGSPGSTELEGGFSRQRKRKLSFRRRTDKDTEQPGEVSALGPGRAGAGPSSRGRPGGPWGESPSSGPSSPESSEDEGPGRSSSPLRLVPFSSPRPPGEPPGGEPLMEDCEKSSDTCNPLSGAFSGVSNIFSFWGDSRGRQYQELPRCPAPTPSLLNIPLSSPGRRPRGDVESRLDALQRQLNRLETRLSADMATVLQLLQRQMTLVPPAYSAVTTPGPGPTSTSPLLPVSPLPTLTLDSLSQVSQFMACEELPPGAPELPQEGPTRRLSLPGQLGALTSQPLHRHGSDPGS

Row | SMILES | IC50
20 | N#Cc1ccc(N2CC[C@@H](Nc3c(C(N)=O)cnc4[nH]ccc34)[C@@H](F)C2)nc1 (racemic) [Example 41] | ≥ 100000 nM
